# How the values were obtained:
# [1] = tested on: HAP1 MTAP-deleted cell line; assay: Viability assay, MTAP-deleted cell line; assay type: cell-based; conditions: Homo sapiens, read-out: HAP1 MTAP deleted viability
# Text: Table 1 additionally indicates IC50 values in a viability assay for the MTAP-deleted cell line (column 10), indicating the effect of treatment with compound on cell survival.
# [2] = tested on: HAP1 MTAP-deleted cell line; assay: SDMA in-cell western assay, HAP1 MTAP-deleted; assay type: cell-based; conditions: for IC50: Homo sapiens, HAP1, SDMA in-cell western, HAP1 MTAP-deleted; for MTAP intact/deleted ratio: SDMA in-cell western
# In short: (§1)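 IC50 values come from SDMA signal quantified by in-cell western in two HAP1 lines, one with native MTAP levels and one lacking MTAP.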
# [3] = tested on: HAP1 MTAP-intact cell line; assay: SDMA in-cell western assay, HAP1 MTAP-intact; assay type: cell-based; conditions: Homo sapiens, HAP1, SDMA in-cell western, HAP1 MTAP-intact; read-out: MTAP HAP1 intact IC50
# In short: as §1
# PRMT5 [4] = molecular target: T1, PRMT5 (Homo sapiens, UniProt O14744); assay: PRMT5 biochemical IC50 assay with SAM as cofactor; conditions: PRMT5, SAM as cofactor; read-out: SAM IC50
# T1 construct: purchased Viva (custom protein)
# PRMT5 [5] = molecular target: T1, PRMT5; assay: PRMT5 biochemical IC50 assay with no cofactor; conditions: PRMT5, no cofactor
# Text: Table 1 indicates IC50 values (μM) against PRMT5 for exemplary compounds in the presence of SAM as cofactor, with no cofactor, and with MTA as cofactor, respectively (columns 4-6). […] Ki values can be calculated from the IC50 values as described in the Examples section. As detailed in the Examples section, for the assay performed in the presence of SAM, IC50=Ki×1.5 (Ki=IC50/1.5).
# PRMT5 [6] = molecular target: T1, PRMT5; assay: PRMT5 biochemical IC50 assay with MTA as cofactor; conditions: PRMT5, MTA as cofactor; read-out: MTA IC50
# [7] = HAP1, viability assay, MTAP-deleted cell line
# [8] = read-out: HAP1 MTAP deleted IC50
# [9] = IC50 ratio HAP1 MTAP-intact / HAP1 MTAP-deleted
# [10] = read-out: HAP 1 MTAP deleted IC50
# [11] = read-out: No Cofactor/ rel IC50
# [12] = HAP1, viability IC50, MTAP-deleted cell line
# [13] = IC50 ratio HAP1 MTAP-intact vs HAP1 MTAP-deleted
# [14] = HAP1, viability assay, HAP1 MTAP-deleted
# T1 sequence (O14744 whole entry): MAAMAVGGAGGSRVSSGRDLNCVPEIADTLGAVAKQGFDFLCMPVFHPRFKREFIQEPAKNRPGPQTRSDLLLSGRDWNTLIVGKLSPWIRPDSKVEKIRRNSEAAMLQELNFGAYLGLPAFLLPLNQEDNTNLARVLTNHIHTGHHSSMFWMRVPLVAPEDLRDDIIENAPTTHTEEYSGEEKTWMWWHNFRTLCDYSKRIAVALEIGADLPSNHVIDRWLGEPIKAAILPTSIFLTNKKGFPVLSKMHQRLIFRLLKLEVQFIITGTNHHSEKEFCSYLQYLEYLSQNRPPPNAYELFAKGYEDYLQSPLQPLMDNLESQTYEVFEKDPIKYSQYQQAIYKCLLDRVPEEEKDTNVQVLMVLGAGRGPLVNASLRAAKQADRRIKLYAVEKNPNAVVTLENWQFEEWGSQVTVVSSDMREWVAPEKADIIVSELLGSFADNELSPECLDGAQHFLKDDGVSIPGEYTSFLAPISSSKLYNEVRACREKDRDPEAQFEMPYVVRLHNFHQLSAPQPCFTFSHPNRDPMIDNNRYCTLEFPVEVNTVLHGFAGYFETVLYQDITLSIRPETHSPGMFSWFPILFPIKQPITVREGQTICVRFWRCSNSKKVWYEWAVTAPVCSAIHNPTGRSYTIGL
# T1 sequence (Q9BQA1 whole entry partner): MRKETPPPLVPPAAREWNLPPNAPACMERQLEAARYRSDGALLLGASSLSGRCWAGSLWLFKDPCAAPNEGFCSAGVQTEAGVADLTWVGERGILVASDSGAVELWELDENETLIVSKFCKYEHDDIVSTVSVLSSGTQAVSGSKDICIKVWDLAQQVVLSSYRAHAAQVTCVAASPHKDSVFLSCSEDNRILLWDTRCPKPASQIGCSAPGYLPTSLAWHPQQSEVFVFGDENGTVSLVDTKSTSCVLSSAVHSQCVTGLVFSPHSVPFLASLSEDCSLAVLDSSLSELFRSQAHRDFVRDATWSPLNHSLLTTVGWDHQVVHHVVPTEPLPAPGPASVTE
SMILES,"IC50 [2, 8] [nM]",IC50 [3] [nM],IC50 (PRMT5 [4]) [nM],IC50 (PRMT5 [5]; read-out: No Cofactor/rel IC50) [nM],IC50 (PRMT5 [6]) [nM],"IC50 [2, 10] [nM]",IC50 (PRMT5 [5]; [11]) [nM],"IC50 [1, 7] [µM]","MTAP intact/deleted ratio [2, 9]","IC50 ([1]; HAP1, viability, HAP1 MTAP-deleted cell line) [µM]","IC50 [1, 12] [µM]","MTAP intact/deleted ratio [2, 13]","IC50 [1, 14] [µM]"
"Cc1cncc(NC(=O)C(=O)N2C[C@@H](C)CC[C@@H]2c2cccc(C)c2)c1 (single isomer, unassigned) [Compound 11]",–,> 1000,> 500,–,> 500,> 1000,> 500,> 10,C (an IC50 ratio of less than 3 fold),–,–,–,–
"Cc1cc(NC(=O)C(=O)N2C[C@H](C)[C@H](OC(C)C)C[C@H]2c2ccccc2)cnc1N (single isomer, unassigned) [Compound 1351]",–,< 100,< 50,–,< 50,< 100,< 50,–,B (an IC50 ratio greater than or equal to 3 fold but lower than 10 fold),< 1,–,–,–
"Cc1cc(NC(=O)C(=O)N2CC[C@@H](C#N)C[C@H]2c2ccccc2)cnc1N (single isomer, unassigned) [Compound 399]",< 100,> 1000,50 to 500,50 to 500,< 50,–,–,1 to 10,A (an IC50 ratio greater than or equal to 10 fold),–,–,–,–
"Cc1cc(NC(=O)C(=O)N2CCCCC2c2csc3ccccc23)cnc1N (stereo not shown) [Compound 123, N-(6-Amino-5-methyl-3-pyridyl)-2-[2-(benzothiophen-3-yl)-1-piperidyl]-2-oxo-acetamide]",–,> 1000,50 to 500,–,< 50,100 to 1000,50 to 500,1 to 10,A (an IC50 ratio greater than or equal to 10 fold),–,–,–,–
"COc1ncc(NC(=O)C(=O)N2C[C@H](C)CC[C@H]2c2ccc3[nH]ncc3c2)cc1C(N)=O (single isomer, unassigned) [Compound 465]",> 1000,> 1000,> 500,> 500,> 500,–,–,> 10,B (an IC50 ratio greater than or equal to 3 fold but lower than 10 fold),–,–,–,–
"Cc1ccc([C@@H]2CC[C@@H](C)CN2C(=O)C(=O)Nc2cncc(C(N)=O)c2)cc1O (racemic) [Compound 554, 5-[[2-[(2S,5R)-2-(3-hydroxy-4-methyl-phenyl)-5-methyl-1-piperidyl]-2-oxo-acetyl]amino]pyridine-3-carboxamide]",–,> 1000,50 to 500,50 to 500,< 50,< 100,–,–,A (an IC50 ratio greater than or equal to 10 fold),–,1 to 10,–,–
"CC[C@H]1CC[C@H](c2ccccc2)N(C(=O)C(=O)Nc2cncc(C(N)=O)c2)C1 (single isomer, unassigned) [Compound 547]",–,> 1000,50 to 500,50 to 500,< 50,< 100,–,–,A (an IC50 ratio greater than or equal to 10 fold),–,1 to 10,–,–
"COc1ncc(NC(=O)C(=O)N2C[C@H](C)CC[C@H]2c2ccc3cnccc3c2)cc1C(N)=O (single isomer, unassigned) [Compound 933]",–,> 1000,> 500,> 500,> 500,> 1000,–,> 10,B (an IC50 ratio greater than or equal to 3 fold but lower than 10 fold),–,–,–,–
"C[C@@H]1CC[C@@H](c2ccccc2)N(C(=O)C(=O)Nc2cncc(C(N)=O)c2)[C@H]1C (single isomer, unassigned) [Compound 482]",< 100,> 1000,50 to 500,50 to 500,< 50,–,–,< 1,A (an IC50 ratio greater than or equal to 10 fold),–,–,–,–
"COc1ccc([C@@H]2CC[C@@H](C)CN2C(=O)C(=O)Nc2cncc(C(N)=O)c2)cc1C#N (racemic) [Compound 237, rac-5-{2-[(2R,5S)-2-(3-Cyano-4-methoxyphenyl)-5-methylpiperidin-1-yl]-2-oxoacetamido}pyridine-3-carboxamide]",> 1000,> 1000,50 to 500,50 to 500,50 to 500,–,–,> 10,B (an IC50 ratio greater than or equal to 3 fold but lower than 10 fold),–,–,–,–
"Cc1cc(NC(=O)C(=O)N2C[C@H](C)CC[C@H]2c2cccnc2)cnc1N (racemic) [Compound 146, N-(6-amino-5-methyl-3-pyridyl)-2-[(2S,5R)-5-methyl-2-(3-pyridyl)-1-piperidyl]-2-oxo-acetamide]",–,> 1000,50 to 500,–,< 50,< 100,50 to 500,1 to 10,–,–,–,–,–
"CNc1ccc([C@@H]2CC[C@@H](C)CN2C(=O)C(=O)Nc2cncc(C(N)=O)c2)cn1 (single isomer, unassigned) [Compound 443]",< 100,> 1000,50 to 500,< 50,< 50,–,–,< 1,A (an IC50 ratio greater than or equal to 10 fold),–,–,–,–

# More lines, main results first:
"IC50 [2, 8] [nM]",IC50 [3] [nM],IC50 (PRMT5 [4]) [nM],IC50 (PRMT5 [5]; read-out: No Cofactor/rel IC50) [nM],IC50 (PRMT5 [6]) [nM],"IC50 [2, 10] [nM]",IC50 (PRMT5 [5]; [11]) [nM],SMILES,"IC50 [1, 7] [µM]","MTAP intact/deleted ratio [2, 9]","IC50 ([1]; HAP1, viability, HAP1 MTAP-deleted cell line) [µM]","IC50 [1, 12] [µM]","MTAP intact/deleted ratio [2, 13]","IC50 [1, 14] [µM]"
< 100,100 to 1000,50 to 500,< 50,< 50,–,–,"Cc1cc(NC(=O)C(=O)N2C[C@H](C)CC[C@H]2c2ccc(N)cc2)cnc1N (single isomer, unassigned) [Compound 461]",< 1,B (an IC50 ratio greater than or equal to 3 fold but lower than 10 fold),–,–,–,–
–,> 1000,50 to 500,50 to 500,50 to 500,100 to 1000,–,"Cc1cc(NC(=O)C(=O)N2C[C@H](C)CC[C@H]2c2ccc(S(N)(=O)=O)cc2)cnc1N (racemic) [Compound 662, N-(6-amino-5-methyl-3-pyridyl)-2-[(2S,5R)-5-methyl-2-(4-sulfamoylphenyl)-1-piperidyl]-2-oxo-acetamide]",–,A (an IC50 ratio greater than or equal to 10 fold),–,> 10,–,–
< 100,< 100,50 to 500,< 50,< 50,–,–,"CCc1cc(NC(=O)C(=O)N2C[C@@H](C)CC[C@@H]2c2ccc3sc([C@H]4CN(C)CCO4)nc3c2)cnc1N [Compound 1202, N-(6-amino-5-ethyl-3-pyridyl)-2-oxo-2-[(2R,5S)-5-methyl-2-[2-[(2R)-4-methylmorpholin-2-yl]-1,3-benzothiazol-5-yl]-1-piperidyl]acetamide]",< 1,–,–,–,A (an IC50 ratio greater than or equal to 10 fold),–
> 1000,> 1000,> 500,> 500,> 500,–,–,"Cc1cc(NC(=O)C(=O)N2C[C@H](C)CC[C@H]2c2ccc(C(N)=O)s2)cnc1N (single isomer, unassigned) [Compound 823]",–,C (an IC50 ratio of less than 3 fold),–,–,–,> 10
< 100,100 to 1000,50 to 500,50 to 500,< 50,–,–,"Cc1cc(NC(=O)C(=O)N2C[C@H](C)CC[C@H]2c2cccc(C3CCN(C)CC3)c2)cnc1N (racemic) [Compound 1149, N-(6-amino-5-methylpyridin-3-yl)-2-(5-methyl-2-(3-(1-methylpiperidin-4-yl)phenyl)piperidin-1-yl)-2-oxoacetamide]",< 1,–,–,–,A (an IC50 ratio greater than or equal to 10 fold),–
–,> 1000,50 to 500,50 to 500,< 50,100 to 1000,–,"Cc1cc(NC(=O)C(=O)N2C[C@H](C)CC[C@H]2c2cccc3scnc23)cnc1N (single isomer, unassigned) [Compound 960]",1 to 10,A (an IC50 ratio greater than or equal to 10 fold),–,–,–,–
> 1000,> 1000,> 500,> 500,> 500,–,–,"Cc1cc(NC(=O)C(=O)N2C[C@H](C)CC[C@H]2c2ccc(-c3nccs3)cc2)cnc1N (single isomer, unassigned) [Compound 816]",–,C (an IC50 ratio of less than 3 fold),–,–,–,> 10
–,> 1000,> 500,> 500,> 500,> 1000,–,"Cc1cc(NC(=O)C(=O)N2C[C@H](C)CC[C@H]2c2ccc(C(F)(F)F)c(Cl)c2)cnc1N (single isomer, unassigned) [Compound 689]",–,C (an IC50 ratio of less than 3 fold),–,> 10,–,–

# — patent publication US11999727B2 (Tango Therapeutics, Inc., priority 2020, dated 2024)
